# From PubChem BioAssay (NCI)
#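 Dose response: 5 concentrations. Exposure: 48 h. Format: 96-well plates. Endpoint: linear interpolation; highest concentration if not reached. GI50: concentration for 50% inhibition of growth. TGI: total growth inhibition.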
# What was measured:
# Experiment in all cases: NCI anticancer screen, dose series, 48 h
# [1] = system: SK-MEL-2 melanoma
# [2] = system: MDA-MB-231 breast
# [3] = system: SR leukemia
# [4] = system: U251 CNS
# [5] = system: RXF 393 renal
# [6] = system: COLO 205 colon
# [7] = system: RPMI-8226 leukemia
# [8] = system: UACC-62 melanoma
# [9] = system: SNB-19 CNS
# [10] = system: HOP-62 NSCLC
# [11] = system: HCT-116 colon
# [12] = system: KM12 colon
# [13] = system: SF-295 CNS
# [14] = system: HOP-92 NSCLC
# [15] = system: MCF7 breast
# [16] = system: NCI-H460 lung
# [17] = system: A549 NSCLC
# [18] = system: HCT-15 colon
# [19] = system: SK-MEL-28 melanoma
# [20] = system: UO-31 renal
# [21] = system: CCRF-CEM leukemia
# [22] = system: M14 melanoma
# [23] = system: HCC-2998 colon
# [24] = system: SK-MEL-5 melanoma
# [25] = system: MOLT-4 leukemia
# [26] = system: HL-60(TB) leukemia
# [27] = system: SF-539 CNS
# [28] = system: NCI-H23 lung
# [29] = system: PC-3 prostate
# [30] = system: HS 578T breast
# [31] = system: OVCAR-8 ovarian
# [32] = system: A498 renal
# [33] = system: IGROV1 ovarian
# [34] = system: T-47D breast
# [35] = system: ACHN renal
# [36] = system: SNB-75 CNS
# [37] = system: K-562 leukemia
# [38] = system: CAKI-1 renal
# [39] = system: SF-268 CNS
# [40] = system: BT-549 breast
# [41] = system: UACC-257 melanoma
# [42] = system: NCI-H226 lung
# [43] = system: MDA-MB-435
# [44] = system: DU-145 prostate
# [45] = system: OVCAR-3 ovarian
# [46] = system: 786-0 renal
# [47] = system: OVCAR-5 ovarian
# [48] = system: NCI/ADR-RES ovarian
# [49] = system: NCI-H522 lung
# [50] = system: OVCAR-4 ovarian
# [51] = system: HT29 colon
# [52] = system: SN12C renal
# [53] = system: MALME-3M melanoma
# [54] = system: SW-620 colon
# [55] = system: LOX IMVI melanoma
# [56] = system: TK-10 renal
# [57] = system: SK-OV-3 ovarian
# [58] = system: EKVX NSCLC
compound,measurement,setting,value
CCO/C=N/C1=C(C#N)C(c2ccc(OC)cc2)c2sc3c(C)cccc3c2O1 (stereo unspecified),GI50,[1],1140 nM
same,TGI,[1],> 100 µM
same,GI50,[2],1570 nM
same,TGI,[2],> 45 µM
same,GI50,[3],376 nM
same,TGI,[3],7.84 µM
same,GI50,[4],510 nM
same,TGI,[4],> 39.5 µM
same,GI50,[5],233 nM
same,TGI,[5],707 nM
same,GI50,[6],818 nM
same,TGI,[6],6.69 µM
same,GI50,[7],417 nM
same,TGI,[7],15.1 µM
same,GI50,[8],514 nM
same,TGI,[8],> 100 µM
same,GI50,[9],518 nM
same,TGI,[9],> 100 µM
same,GI50,[10],552 nM
same,TGI,[10],> 60.3 µM
same,GI50,[11],402 nM
same,TGI,[11],> 38.4 µM
same,GI50,[12],452 nM
same,TGI,[12],> 100 µM
same,GI50,[13],362 nM
same,TGI,[13],> 37.8 µM
same,GI50,[14],851 nM
same,TGI,[14],> 55.2 µM
same,GI50,[15],347 nM
same,TGI,[15],> 81.2 µM
same,GI50,[16],407 nM
same,TGI,[16],> 100 µM
same,GI50,[17],898 nM
same,TGI,[17],> 100 µM
same,GI50,[18],447 nM
same,TGI,[18],> 38.1 µM
same,GI50,[19],3.42 µM
same,TGI,[19],> 100 µM
same,GI50,[20],562 nM
same,TGI,[20],> 100000 nM
same,GI50,[21],459 nM
same,TGI,[21],> 100 µM
same,GI50,[22],421 nM
same,TGI,[22],> 45 µM
same,GI50,[23],1070 nM
same,TGI,[23],7.78 µM
same,GI50,[24],0.5 µM
same,TGI,[24],> 46.5 µM
same,GI50,[25],540 nM
same,TGI,[25],> 24.3 µM
same,GI50,[26],290 nM
same,TGI,[26],1730 nM
same,GI50,[27],316 nM
same,TGI,[27],1910 nM
same,GI50,[28],545 nM
same,TGI,[28],> 100 µM
same,GI50,[29],494 nM
same,TGI,[29],> 100 µM
same,GI50,[30],350 nM
same,TGI,[30],> 47.8 µM
same,GI50,[31],716 nM
same,TGI,[31],> 100 µM
same,GI50,[32],291 nM
same,TGI,[32],1100 nM
same,GI50,[33],515 nM
same,TGI,[33],> 100 µM
same,GI50,[34],561 nM
same,TGI,[34],> 100 µM
same,GI50,[35],699 nM
same,TGI,[35],> 100 µM
same,GI50,[36],203 nM
same,TGI,[36],774 nM
same,GI50,[37],333 nM
same,TGI,[37],> 100 µM
same,GI50,[38],321 nM
same,TGI,[38],> 100 µM
same,GI50,[39],766 nM
same,TGI,[39],> 100 µM
same,GI50,[40],650 nM
same,TGI,[40],> 58.5 µM
same,GI50,[41],> 43.5 µM
same,TGI,[41],> 100 µM
same,GI50,[42],457 nM
same,TGI,[42],> 30.7 µM
same,GI50,[43],243 nM
same,TGI,[43],677 nM
same,GI50,[44],571 nM
same,TGI,[44],> 100 µM
same,GI50,[45],394 nM
same,TGI,[45],> 100 µM
same,GI50,[46],469 nM
same,TGI,[46],> 62.4 µM
same,GI50,[47],3160 nM
same,TGI,[47],> 100 µM
same,GI50,[48],0.444 µM
same,TGI,[48],> 100 µM
same,GI50,[49],426 nM
same,TGI,[49],10 µM
same,GI50,[50],1480 nM
same,TGI,[50],> 100 µM
same,GI50,[51],1140 nM
same,TGI,[51],35.5 µM
same,GI50,[52],831 nM
same,TGI,[52],> 52.3 µM
same,GI50,[53],603 nM
same,TGI,[53],> 100 µM
same,GI50,[54],527 nM
same,TGI,[54],> 100 µM
same,GI50,[55],665 nM
same,TGI,[55],> 40.3 µM
same,GI50,[56],22.7 µM
same,TGI,[56],> 100 µM
same,GI50,[57],794 nM
same,TGI,[57],> 100 µM
same,GI50,[58],932 nM
same,TGI,[58],> 100 µM
COc1cc(/C=N/NC(=O)c2cn(C3CC3)c3c(OC)c(N4CC5CCCNC5C4)c(F)cc3c2=O)ccc1O (stereo unspecified),GI50,[1],1850 nM
same,TGI,[1],3.68 µM
same,GI50,[2],1690 nM
same,TGI,[2],3.22 µM
same,GI50,[7],1880 nM
same,TGI,[7],4.38 µM
same,GI50,[8],1720 nM
same,TGI,[8],3.28 µM
same,GI50,[12],1670 nM
same,TGI,[12],3.11 µM
same,GI50,[14],1660 nM
same,TGI,[14],3.16 µM
same,GI50,[16],1870 nM
same,TGI,[16],3.5 µM
same,GI50,[20],1530 nM
same,TGI,[20],2930 nM
same,GI50,[24],17.6 µM
same,TGI,[24],41.3 µM
same,GI50,[25],2300 nM
same,TGI,[25],5.33 µM
same,GI50,[27],1730 nM
same,TGI,[27],3210 nM
same,GI50,[29],1740 nM
same,TGI,[29],3.28 µM
same,GI50,[32],1760 nM
same,TGI,[32],3180 nM
same,GI50,[35],1700 nM
same,TGI,[35],3.09 µM
same,GI50,[36],1430 nM
same,TGI,[36],2810 nM
same,GI50,[38],1670 nM
same,TGI,[38],3.12 µM
same,GI50,[44],1860 nM
same,TGI,[44],3.31 µM
same,GI50,[47],1650 nM
same,TGI,[47],3.05 µM
same,GI50,[48],58.8 µM
same,TGI,[48],> 100 µM
same,GI50,[49],1790 nM
same,TGI,[49],3.4 µM
same,GI50,[51],1830 nM
same,TGI,[51],3.38 µM
same,GI50,[52],1830 nM
same,TGI,[52],3.46 µM
same,GI50,[53],1690 nM
same,TGI,[53],3.21 µM
same,GI50,[54],1730 nM
same,TGI,[54],3.27 µM
same,GI50,[56],1.68 µM
same,TGI,[56],3.1 µM
